Measured values: patent publication US7601739B2, “Compounds having antiestrogenic and tissue selective estrogenic properties, and compounds with anti-androgenic properties for treatment of prostate cancer and androgen receptor dependent diseases” (Virgina Commonwealth University, priority 2006, dated 2009)

Assays:
hER = experiment: Fluorescence-based competitive binding assay for hER (displacement of fluormone ES2); design: species or system human; conditions: RBA = IC50 of tamoxifen/IC50 of test molecule; tamoxifen set at 1
Description: The estrogen receptor competitor assay kits (Panvera, Madison, Wis.) were used to determine the ability of test molecules to displace the fluormone, ES2, from hER -ES2 or hER -ES2 complex. Serial dilutions of each test molecule were prepared in methanol or DMSO. The recombinant hER or hER (7 nM) was preincubated with ES2 (1 nM) in screening buffer. After the preincubation, the test molecules and ER-ES2 complex solution were added into the 96-well microplate to produce a final volume of 100 μl per well. The reaction was incubated at room temperature for 1 hr and the polarization values were measured by using fluorescence microplate reader, Polarion (Tecan, Research Triangle Park, N.C.) with excitation wavelength 495 nm and emission wavelength 535 nm. The polarization value versus test molecule concentration curves was analyzed by graphfit software to generate IC50 values.
In this assay, recombinant hER and the commercial synthetic estrogen, ES2 containing fluorescence polarization property, are used. This assay is a homogenous assay. When the assay solution only contains ES2, the solution exerts weak fluorescence polarization property due to the quick rotation of free ES2 molecule. […] Addition of the antiestrogen to the ES2/hER displaces ES2 from hER and results in the whole solution exerting less fluorescence polarization property than the solution without antiestrogen.

MCF-7 cells = experiment: hERα positive breast cancer cell proliferation assay; type: cell-based, human; conditions: for activity at 5 µM: Homo sapiens, MCF7, 72 h, MCF-7 cells, DMSO = 1, read-out: Relative Cancer Cell Proliferation Effects at 5 μM
Description: (§1) MCF-7 or MDA-MB-231 cells were inoculated into 12-well culture plates at 10000 cells in 2 ml maintained medium per well. Cells were allowed to attach to the bottom for 24 hrs incubation, then the seeding medium was removed and replaced by the experimental medium (phenol red-free DMEM supplemented with 5% charcoal-stripped fetal bovine serum and Penicillin (100 unit/ml)/Streptomycin ([…])). After 24 hr incubation, the test molecules dissolved in DMSO were added in the wells. […] The culture was continued for 3 days and the medium and tested compounds were replaced every two days. The final cell numbers were estimated with CellTiter proliferation assay kit (Promega, Madison, Wis.) by measuring the absorbance at 570 nm, which is directly proportional to the number of living cells in the culture.
MCF-7 cell line was used to perform this assay and the description of this assay as mentioned above. […] DMSO was used as reference.

hERα = biological target: T1, hERα (Homo sapiens, UniProt P03372); experiment: Transient transfection reporter assay for hERα in MCF-7 cells; type: cell-based; design: Relative Estrogenic Activity: dose or concentration left out as unconfirmed; conditions: for Relative Estrogenic Activity: MCF-7 cells transfected with hERα, DMSO set as 1; for estrogenic effect: compared with DMSO and tamoxifen; for Relative Antiestrogenic Activity at 2.5 μM: with 1 nM estradiol, 1 nM E2 used as reference (1)
T1 construct: mammalian expression plasmid containing full length human ER cDNA, pCMV-hER; expressed in transfected cells; host or cells: MCF-7 human breast cancer cells
T1 sequence (P03372 1-595): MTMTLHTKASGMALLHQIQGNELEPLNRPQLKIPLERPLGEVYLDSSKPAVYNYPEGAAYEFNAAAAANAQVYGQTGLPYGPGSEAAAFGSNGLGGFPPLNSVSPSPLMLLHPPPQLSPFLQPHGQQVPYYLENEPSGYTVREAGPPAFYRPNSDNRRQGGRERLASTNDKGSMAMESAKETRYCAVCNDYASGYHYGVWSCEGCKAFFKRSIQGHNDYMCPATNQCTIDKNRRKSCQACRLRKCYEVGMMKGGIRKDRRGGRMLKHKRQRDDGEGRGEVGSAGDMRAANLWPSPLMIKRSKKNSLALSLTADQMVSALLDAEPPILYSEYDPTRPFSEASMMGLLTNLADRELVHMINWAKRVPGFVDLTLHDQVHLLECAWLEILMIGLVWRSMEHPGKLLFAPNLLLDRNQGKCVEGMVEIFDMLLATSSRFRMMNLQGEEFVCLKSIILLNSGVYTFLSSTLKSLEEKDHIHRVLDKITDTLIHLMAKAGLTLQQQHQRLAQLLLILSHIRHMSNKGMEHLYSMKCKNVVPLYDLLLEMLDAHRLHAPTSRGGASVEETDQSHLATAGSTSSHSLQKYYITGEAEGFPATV
Description: For the transient transfection reporter assays, the cells were plated in triplicate in 12-well plates at a density of 300000 cells/well in the phenol red-free DMEM (GIBCO/BRL, Grand Island, N.Y.) supplemented with 10% charcoal-stripped fetal bovine serum (Hyclone, Logan, Utah), Penicillin (100 unit/ml)/Streptomycin ([…]), 2 mML-glutamine and 1 mM sodium Pyruvate. 24 hrs later, the cells were transfected with three plasmids by using Superfect transfection kit (Qiagen, Valencia, Calif.). For the detection of hER activity, cells were transfected with 2 g hER expression plasmid (pCMV-ER ), 6 g luciferase reporter plasmid containing estrogen receptor response element (PGL-TATA-Luc), and 600 ng normalization control, β-galactosidase reporter plasmid (pCMV ). For the detection of hER activity, cells were transfected with 3 ug hER expression plasmid (pcDNA3.1-hER), 6 g luciferase reporter plasmid containing estrogen receptor response element (PGL-TATA-Luc), and 600 ng pCMV. For determining the influence of ER's major coactivator in breast, AIB 1, 2 g pcDNA3.1-AIB1 was added into the transfection plasmid solution mentioned previously.
The transfected cells were rinsed with PBS and treated with various concentrations of test molecules and one […] (vehicle, DMSO or methanol) in phenol red-free culture medium. After incubation for further 24 hrs, the cells were washed with PBS and lysed with lysis buffer (Pierce, Rockford, Ill.). The lysate was used to determine the luciferase activity for ER's activity and the β-galactosidase activity for the normalization of transfection efficiency.
For the luciferase activity assay, 20 μl of lysate and 100 μl luciferase assay buffer (Promega, Madison, Wis.) were added into a well of 96-well plate. The luminescence was detected by using luminescence microplate reader, LumiCount (Packard, Boston, Mass.). For the β-galactosidase activity assay, […] β-galactosidase assay buffer (Clontech, Palo Alto, Calif.) were added into a well of 96-well plate. The β-galactosidase activity was measured as luminescence strength by using luminescence microplate reader, LumiCount (Packard, Boston, Mass.). The normalized reporter activity was calculated by the luciferase activity divided by that of β-galactosidase.
The transient transfection reporter assay was used to determine the estrogenic or antiestrogenic activity of tested compounds in employed human breast cancer cells, MCF-7 cells that are cotransfected with hERα expression and reporter plasmids. […] […] The estrogenic (antiestrogenic) activity was determined by dividing the luciferase activity by the β-galactosidase activity. To determine the influence of estrogen receptor's major coactivator in breast cancer, AIB1, for the compounds' estrogenic activity, the expression vector of AIB1 was additionally cotransfected with the plasmids mentioned above.

MDA-MB-231 cells = experiment: hER negative breast cancer cell proliferation assay; type: cell-based, human; conditions: hER negative cell line
Description: as §1
In this assay, MDA-MB-231 breast cancer cell line, a hER negative cell line, was used. DMSO was used as reference.

| Structure (SMILES) | Relative Binding Affinity (hER) | inhibition effects against MCF-7 cell proliferation (MCF-7 cells) | activity at 5 µM (MCF-7 cells) | Relative Estrogenic Activity (hERα) | estrogenic effect (hERα; MCF-7 cells, hERα) | Relative Antiestrogenic Activity at 2.5 μM (hERα) | stimulation of growth of DMSO-treated MCF-7 cells (MCF-7 cells; 2 nM estrogen) | antiestrogenic activity against various concentrations of estrogen (FIG. 4) (hERα; MCF-7 cells, hERα) | antiestrogenic / inhibition activity (hERα; against 1 nM estrogen) | proliferation effects against MDA-MB-231 cells (FIG. 6, words) (MDA-MB-231 cells) | inhibition of MCF-7 cell proliferation (MCF-7 cells; relative to DMSO) |
| --- | --- | --- | --- | --- | --- | --- | --- | --- | --- | --- | --- |
| CCCCNC(=O)CCCCCCCCCCOCC1Cc2ccccc2CN1C(=O)c1ccc(F)cc1 (stereo not shown) [Compound 3] | 0.264 | slight inhibition effects | 91% | 1.09 | do not exert any estrogenic effects | 0.93 |  |  |  |  |  |
| C[C@]12CC[C@@H]3c4ccc(O)cc4CC[C@H]3[C@@H]1CC[C@@H]2O [Compound E2, estradiol, reference compound] |  |  |  |  |  |  | 150% |  |  |  |  |
| CCCCNC(=O)CCCCCCCCCCOCC1Cc2ccccc2CN1C(=O)c1cccc(Cl)c1 (stereo not shown) [Compound 10, 11-[2-(3-Chloro-benzoyl)-1,2,3,4tetrahydro-isoquinolin-3-ylmethoxy]-undecanoic acid butylamide] | 0.156 | slight inhibition effects | 86% | 0.68 | do not exert any estrogenic effects | 0.83 |  |  |  |  |  |
| CCCCNC(=O)CCCCCCCCCCOCC1Cc2ccccc2CN1C(=O)c1ccccc1F (stereo not shown) [Compound 1] | 0.225 |  | 106% | 1.02 | do not exert any estrogenic effects | 1.17 |  | can antagonize estrogen's action in a dose dependent manner |  |  |  |
| CCCCNC(=O)CCCCCCCCCCOCC1Cc2ccccc2CN1C(=O)c1ccc(OC)cc1 (stereo not shown) [Compound 5] | 0.14 |  | 98% | 1.06 | do not exert any estrogenic effects | 1.64 |  |  |  |  |  |
| CCCCNC(=O)CCCCCCCCCCOCC1Cc2ccccc2CN1C(=O)c1cccc(C)c1 (stereo not shown) [Compound 8, 11-[2-(3-Methyl-benzoyl)-1,2,3,4tetrahydro-isoquinolin-3-ylmethoxy]-undecanoic acid butylanide] | 0.156 | slight inhibition effects | 84% | 1.32 |  | 0.75 |  |  | moderate antiestrogenic effect |  |  |
| CCCCNC(=O)CCCCCCCCCCOCC1Cc2ccccc2CN1C(=O)Cc1cccc(F)c1 (stereo not shown) [Compound 12, 11-{2-[2-(3-Fluoro-phenyl)-acetyl]-1,2,3,4-tetrahydro-isoquinolin-3-ylmethoxy]-undecanoic acid butylamide] | 0.267 |  | 120% | 1.68 |  | 1.01 |  |  |  |  |  |
| CCCCNC(=O)CCCCCCCCCCOCC1Cc2ccccc2CN1C(=O)c1ccc(C)cc1 (stereo not shown) [Compound 9, 11-[2-(4-Methyl-benzoyl)-1,2,3,4-tetrahydro-isoquinolin-3-ylmethoxy]-undecanoic acid butylamide] | 0.132 |  | 101% | 1.72 |  | 1.34 |  |  |  |  |  |
| CC/C(=C(\c1ccccc1)c1ccc(OCCN(C)C)cc1)c1ccccc1 [Tamoxifen, reference compound] |  |  | 42% |  |  |  |  |  |  | moderate anti-proliferation effects | 58% |
| CCCCCCCCNC(=O)CCCCCCCCCCOCC1Cc2ccccc2CN1C(=O)c1cccc(F)c1 (stereo not shown) [Compound 11, 11-[2-(3-Fluoro-benzoyl)-1,2,3,4-tetrahydro-isoquinolin-3-ylmethoxy]-undecanoic acid octylamide] | 0.177 |  | 100% | 0.83 | do not exert any estrogenic effects | 1.11 |  |  |  |  |  |
